According to paper PMC4366505, “Triggering HIV polyprotein processing by light using rapid photodegradation of a tight-binding protease inhibitor” (Nature Communications, 2015):
Like-named read-outs stand apart in the source and are kept apart here.

Legend:
[1] = molecular target: T1, purified recombinant HIV-1 PR (Human immunodeficiency virus type 1 group M subtype B, UniProt P04585); test: Reactivation of inhibited HIV-1 PR by photolysis at 405 nm, capillary set up; type: biochemical
T1 construct: This 99 amino acid long homodimeric aspartic PR; made in house; host or cells: Escherichia coli BL21(DE3) RIL
Experimental: (§1) To evaluate the efficacy of photodegradation, we analyzed the restoration of HIV-1 PR activity that had been inhibited by compound 1 (Fig. 3a) on irradiation at 405 nm. For irradiation, two lasers with outputs of 130 mW and 170 mW, respectively, were used in parallel. First, we tested a standard cuvette set up, in which 8 nM purified recombinant HIV-1 PR (final concentration of compound 1: 10 or 100 nM; Fig. 3b) in 1 ml cleavage buffer was irradiated. At the lower concentration, irradiation led to a significant restoration of enzyme activity (65% compared with the uninhibited enzyme reaction). At the higher concentration of compound 1, however, PR reactivation was limited even after prolonged irradiation (only 35% activity after 5 min of irradiation). […]
(§2) Figure 3 Kinetic analysis of HIV-1 PR reactivation by inhibitor photodegradation. […] The activity of purified recombinant HIV-1 PR was determined in vitro as described in the experimental section in the presence of the indicated inhibitor concentrations. […] The PR activity was then measured using a chromogenic substrate. […] Relative PR activity was determined as in b after 20-fold dilution into cleavage buffer using the same chromogenic substrate (for details, see Experimental section) and plotted against the flow rate of the sample through the capillary. […]

[2] = test system: HIV-1 replication in MT-4 cells; test: Anti-HIV-1 activity in MT-4 cells (HIV-1 NL4-3 hRluc, Renilla luciferase); details: Human immunodeficiency virus 1, MT4, 72 h, read-out: EC50, inhibition of HIV-1 replication
Experimental: (§3) Cytotoxicity was determined by incubating two-fold serial dilutions of 1 in triplicate in a 96-well plate
(§4) with 30,000 HEK293T cells/well seeded day ago in Dulbecco’s modified Eagle’s medium with L-
(§5) glutamine supplemented with 10% fetal calf serum (FCS, PAA), 100 U of penicillin/mL, 100 µg of
(§6) streptomycin/mL (Sigma-Aldrich) and with 30,000 MT-4 cells (obtained through the NIH AIDS
(§7) medium with 2 mM L-glutamine (PAA) supplemented with 10% FCS, 10 mM HEPES (Sigma-Aldrich),
(§8) 100 U of penicillin/ml, and 100 µg of streptomycin/mL. After 72 h of incubation at 37 °C, 5 % CO2,
(§9) tetrazolium salt XTT (Sigma-Aldrich) was added to the wells for 4 h and formation of colored
(§10) formazan solution was quantified using Victor X3 plate reader (Perkin Elmer). The percentage of
(§11) cytopathic effect (CPE) was plotted against the log10 1 concentrations and the 50 % cytotoxic
(§12) concentrations (CC50) were calculated using nonlinear regression analysis with GraphPad Prism ver. 6
(§13) 1NL4-3hRluc (HIV expressing human Renilla luciferase12) at multiplicity of infection 0.001 IU/ml for 1 h at […]
(§14) dilutions of 1. After 72 h incubation at 37 °C, 5 % CO2 HIV-1 activity was quantified by measuring
(§15) Renilla luciferase luminescence using the Renilla Luciferase Assay System (Promega) in Victor X3
(§16) plate reader. Percentage of inhibition of luminescence activity was plotted against the log10 1 […]

[3] = molecular target: T1, purified recombinant HIV-1 PR; test: Inhibition of HIV-1 PR, spectrophotometric assay with chromogenic substrate (Morrison equation); type: biochemical
Experimental: Ki values were determined by spectrophotometric assay using purified recombinant HIV-1 PR and the chromogenic substrate KARVNleNphEaNle-NH2. Data were analyzed using the Morrison equation[35].

[4] = test system: HIV-1 Gag polyprotein processing; test: Inhibition of HIV-1 Gag polyprotein processing in particles from transfected HEK293T cells (immunoblot); type: cell-based; details: Human immunodeficiency virus 1, HEK-293T; particles from HEK293T cells transfected with HIV-1 proviral plasmid; read-out: concentration giving ~50% reduction in Gag cleavage
Experimental: PR-mediated cleavage of the Gag polyprotein yields the mature structural proteins and two small spacer peptides (Fig. 4a), and different rates of cleavage at individual sites result in the generation of characteristic processing intermediates. First, we assessed the inhibitory potency of compound 1 on HIV-1 Gag polyprotein processing in virus producing cells. For this, particles were purified from the supernatant of HEK293T cells transfected with an HIV-1 proviral plasmid and incubated in the presence of various concentrations of compound 1.
Figure 4 Inhibition of HIV-1 Gag processing by compound 1. (a) Schematic representation of the 55 kDa HIV-1 Gag polyprotein and its cleavage products. (b) Inhibition of HIV-1 Gag processing by compound 1. HIV-1 particles were produced in HEK293T cells in the presence of the indicated inhibitor concentrations. […]
Samples were separated by SDS–PAGE (17.5%; acrylamide:bisacrylamide 200:1), and proteins were transferred to a nitrocellulose membrane by semi-dry blotting. HIV-1 Gag-derived proteins were detected using rabbit polyclonal antiserum raised against HIV-1 CA, followed by fluorescently labelled goat-anti rabbit secondary antibody (LiCor). Quantification of anti-CA reactive bands was performed using an infrared imaging system (LiCor Odyssey) and Image Studio Lite software. Data were analyzed with GraphPad prism.

[5] = test system: HIV-1 PR inside immature HIV-1 particles; test: Photoinduced Gag processing in immature HIV-1 particles produced with inhibitor (capillary irradiation, quantitative immunoblot); type: cell-based
Experimental: Having established conditions for the inhibition of HIV-1 polyprotein processing by compound 1, we proceeded to prepare immature particles for in situ activation of PR. For this, virus particles were produced in transfected HEK293T cells grown in the presence of 2 μM inhibitor. The experimental set up is schematically illustrated in Fig. 5a. Particles collected from inhibitor-treated cells were either subjected to inhibitor wash-out by two subsequent ultracentrifugation steps (Fig. 5b), or only filtered to remove cell debris (Fig. 5c). In both cases, samples were then either irradiated (405 nm) in a glass capillary (Fig. 5b,c, bottom panels) or passed through the capillary in the absence of irradiation (Fig. 5b,c, top panels).
Figure 5 Photoinduced Gag processing in the context of the assembled virion. (a) Schematic illustration of the irradiation experiment to trigger HIV-1 maturation using photoinactivation of compound 1. HEK293T cells were transfected with a proviral HIV-1 plasmid and particles were produced in the presence of 2 μM compound 1. At 44 h post transfection, tissue culture supernatant was harvested and either subjected to ultracentrifugation (b,d) or used directly (c,e). In both cases, samples were then pumped through the capillary set up shown in Supplementary Fig. 4 either with or without ultraviolet irradiation. Subsequently, samples were incubated for various lengths of time. (b,c) Immunoblot analysis of Gag processing products. Samples were separated by SDS–PAGE, and products of Gag processing were detected by quantitative immunoblot (LiCor) using antiserum raised against recombinant HIV-1 CA. The figures show samples incubated for the indicated times without prior irradiation or following irradiation, respectively. Positions of Gag-derived proteins are indicated. (d,e) Quantitative analysis of the experiments shown in b or c, respectively. Anti-CA reactive bands from the immunoblots shown and from corresponding blots from irradiated mature control virus produced in the absence of inhibitor (not shown here) were quantified using Image Studio Light. The graphs show the proportion of mature CA relative to the sum of all anti-CA reactive bands in the respective lane. Filled triangles, irradiated control virus; open circles, inhibitor-treated virus, not irradiated; filled circles, inhibitor-treated virus, irradiated. Curves through data from inhibitor-treated samples represent fits to a single exponential equation. The results are representative of several independent experiments with a slight variation in the half-time of Gag polyprotein processing between 20 and 30 min. CA, capsid; MA, matrix.
HEK293T cells were seeded in six-well plates in high-glucose, phenol red-free DMEM supplemented with penicillin/streptomycin and 10% foetal calf serum. On the following day, cells were transfected with plasmid pCHIV[37] using polyethyleneimine according to standard procedures. A final concentration of 2 μM compound 1 or DMSO (vehicle) was added to the tissue culture medium at the time of transfection. At 44 h post transfection, tissue culture supernatants were harvested, adjusted to pH 6.0 using PR buffer (50 mM MES, pH 6.0, 150 mM NaCl, 2 mM DTT, 1 mM EDTA). Alternatively, supernatants were harvested, filtered, inhibitor was removed by two successive ultracentrifugation steps through a 20% sucrose cushion and the particle pellet was resuspended in PR buffer. […]

[6] = Cytotoxicity, XTT, HEK293T cells; details: human, HEK293T cells
Experimental: as §3, §4, §5, §6, §7, §8, §9, §10, §11, §12, §13, §14, §15, §16

[7] = test system: HEK293T cells; test: Cytotoxicity, XTT, HEK293T cells; details: 2 μM in 0.5% DMSO; cell line not given
[8] = Solubility in culture conditions; type: physicochemical; details: 2 μM in 0.5% DMSO
[9] = molecular target: T1, purified recombinant HIV-1 PR; test: Reactivation of inhibited HIV-1 PR by photolysis at 405 nm, cuvette set up; type: biochemical; details: 8 nM PR
Experimental: as §1, with “reaction).” for “reaction). At the higher concentration of compound 1, however, PR reactivation was limited even after prolonged irradiation (only 35% activity after 5 min of irradiation).”
as §2
Cuvette set up. […] The enzyme activity (and thus the efficacy of photodegradation) was followed by the decrease in absorbance at 305 nm.

[10] = Cytotoxicity, XTT, MT-4 cells; details: human
Experimental: as §3, §4, §5, §6, §7, §8, §9, §10, §11, §12, §13, §14, §15, §16

Row | SMILES | compound degraded by irradiation (estimate) ([1]; estimated from 75% restored PR activity) | original PR activity recovered ([1]; flow rate 15 μl min^−1, inhibitor concentration 100 nM, 405 nm) | EC50 [2] | Ki [3] | difference in Ki values for RTV and compound 1 ([3]; RTV more potent) | loss of potency on irradiation ([3]; irradiation with a 405 nm laser, inhibitor versus photolysis product) | IC50 [4] | Gag processing after irradiation ([5]; culture medium without inhibitor removal, irradiated at 405 nm) | Gag processing without irradiation ([5]; culture medium without inhibitor removal, no irradiation, prolonged incubation) | mature CA (proportion of all anti-CA reactive bands) ([5]; inhibitor wash-out by ultracentrifugation, then irradiated at 405 nm, within 15 min, particles produced with 2 μM) | unprocessed or partially processed Gag products remaining ([5]; inhibitor wash-out, then irradiated, at 6 h of incubation) | half-time of Gag processing after irradiation ([5]; particles produced with 2 μM inhibitor, irradiated at 405 nm in capillary) | CC50 at 72 h [6] | cytotoxicity at working concentration [7] | solubility [8] | remaining activity at 0.01 µM ([9]; 10 nM compound 1, 405 nm irradiation, read-out: restoration of enzyme activity compared with the uninhibited enzyme reaction) | PR activity after irradiation ([9]; 100 nM compound 1, after 5 min of irradiation at 405 nm) | CC50 at 72 h [10] | Ki ([3]; purified recombinant HIV-1 PR, chromogenic substrate KARVNleNphEaNle-NH2, read-out: Ki)
1 | CCN(CC)c1ccc2c(COC(=O)N[C@H](C(=O)N[C@@H](Cc3ccccc3)C[C@H](O)[C@H](Cc3ccccc3)NC(=O)OCc3cncs3)C(C)C)cc(=O)oc2c1 [compound 1] | up to 98% | up to 75% | 8.1 nM | 0.17 ± 0.02 nM | 10 fold | 4 orders of magnitude | ~500 nM | virtually complete Gag processing | no induction of proteolysis | ~ 30% | ~ 50% | ~ 20 min | > 50 µM | noncytotoxic | soluble | 65% | 35% | 7.3 µM | –
2 | CC(C)[C@H](N)C(=O)N[C@@H](Cc1ccccc1)C[C@H](O)[C@H](Cc1ccccc1)NC(=O)OCc1cncs1 [compound 2] | – | – | – | – | – | – | – | – | – | – | – | – | – | – | – | – | – | – | 3200 ± 300 nM
